This is an account of results in patent US8324188B2, “Combinations of ET-18-O-CH3and anti-cancer agents for the treatment of cancer” (priority 2006, dated 2012).

Several values for one entry are separate records, joined by “and”; a condition that tells them apart may be missing. Identical values can stand only once.

Experiment [1] deals with HeLa. The note with it: mean ± SD from three independent experiments, read-out: ED50 values for induction of apoptosis; cited from earlier work.
The test system of experiment [2] is LNCaP cells. Description: flow cytometric analysis of annexin V-PE positive / 7-AAD negative LNCaP cells. The experiment is classed as cell-based, human. As to the method: In a further approach, 10 μM 1-O-octadecyl-2-O-methyl-glycero-3-phosphocholine (final concentration; “CHEM”) and (ionizing) radiation (5 Gray units; “RT”) were administered simultaneously to the LNCaP cells but the subsequent incubation period was extended to 24 hours. Apoptosis was measured using the Apo-ONE™ Homogenous Caspase-3/7 Assay as described above and expressed as relative fluorescence units (RFLU). The percentage of apoptotic cells was determined by flow cytometric analysis of annexin V-PE positive-stained and 7-AAD (7-Amino ActinomycinD) negative-stained cells (both purchased from BD Biosciences, San Jose, Calif., USA) according to established standard protocols. The data represent means±SEM from three independent experiments.
Next, the interaction of 1-O-octadecyl-2-O-methyl-glycero-3-phosphocholine administration (“CHEM”) and androgen deprivation (“AD”) was investigated. LNCaP cells were deprived of androgen for two days by charcoal absorption of serum according to established procedures well known in the art. CHEM was added in a final concentration of 5 μM and 10 μM, respectively.
Apoptosis was measured using the Apo-ONE™ Homogenous Caspase-3/7 Assay as described above and expressed as relative fluorescence units (RFLU). The percentage of apoptotic cells was determined via annexin V-PE/7-AAD staining as described above. The caspase-317 assay and annexin staining were performed 22 hours after CHEM treatment.

Experiment [3] relates to A549 (FAS negative). Nature of the experiment: WST-1 proliferation assay, A549. The experiment is classed as cell-based, human. The note with it: single agent, per experiment line. How it is done:
(§1) 2000 cells were plated in each well of 96-well flat bottom plates, and incubated overnight at 37 °C in 5% CO2. The growth of plated cells was measured by adding […] of WST-1 reagent (Roche Applied Sciences, Germany) to 3 control wells and measuring the absorbance at 650 nm and at 450 nm, respectively, with a SpectraMax250 plate reader. […] After this incubation, VVST-1 reagent was added to the wells and OD650-OD450 values were calculated as before. six wells were assayed for each conditions and standard deviation was determined: all experiments were performed at least three times independently. […] DDP and GMZ were both purchased from Sigma-aldrich Corp., St. Louis, Mo., USA. The following cell lines were used: A549 (FAS negative), NCI-H460 (FAS positive), and HCC827 (FAS positive), all obtained from the ATTC, Rockville, Md., USA.
(In general: Tetrazolium assays rely on reduction of a dye to a coloured formazan, in cell work by metabolically active cells.)

Experiment [4] has as its system A172. Description: WST-1 proliferation assay, A172. Format: cell-based, human. How it is done:
AP-121 was prepared as 5 mM stock solution in distilled sterile water, Temozolomide (TMZ) (Haorui Pharma-Chem, Inc., Edison, N.J.) was prepared as 100 mM in sterile filtrated DMSO; Adriamycin (ADR) (Sigma) was prepared as 1 mM in distilled sterile water; Camptothecin (CTP) (Sigma) was prepared as 10 mM solution in 0.1 N NaOH; Tarceva (Proteinkinase, Germany) was prepared as 5 mM solution in sterile DMSO. All compound stocks were kept at −20° C. 2000 cells were plated in each well of 96-well flat bottom plates, and incubated overnight at 37 °C in 5% CO2. The growth of plated cells was measured by adding […] of WST-1 reagent (Roche Applied Sciences, Germany) to 3 control wells and measuring the absorbance at 650 nm and at 450 nm, respectively, with a SpectraMax250 plate reader. […] After this incubation, VVST-1 reagent was added to the wells and OD650-OD450 values were calculated as before. six wells were assayed for each conditions and standard deviation was determined: all experiments were performed at least three times independently. […] Six different concentrations of each drug were used in combinations index measurements and compared to +/− cells, and compared to controls without compound.

Experiment [5] deals with androgen-insensitive LNCaP C4-2. Nature of the experiment: apoptosis in LNCaP C4-2 cells. The experiment is classed as cell-based, human. The note with it: data not shown.
Experiment [6] deals with NCI-H460 (FAS positive). Nature of the experiment: WST-1 proliferation assay, NCI-H460. The experiment is classed as cell-based, human. To be noted: single agent, per experiment line. How it is done:
as §1

The subject of experiment [7] is LN-229. Nature of the experiment: WST-1 proliferation assay, LN-229. Format: cell-based. The note with it: Homo sapiens. How it is done:
2000 cells were plated in each well of 96-well flat bottom plates, and incubated overnight at 37 °C in 5% CO2. The growth of plated cells was measured by adding […] of WST-1 reagent (Roche Applied Sciences, Germany) to 3 control wells and measuring the absorbance at 650 nm and at 450 nm, respectively, with a SpectraMax250 plate reader. If the OD650-OD450 values were above 0.5, the remainder of the plate was used for incubation with AP-121, other pharmacological agents or solvent control for 96 hours.
After this incubation, VVST-1 reagent was added to the wells and OD650-OD450 values were calculated as before. six wells were assayed for each conditions and standard deviation was determined: all experiments were performed at least three times independently. After elucidation of individual IC50 values for each compound, the simultaneous combination treatment of AP-121 and the chemotherapeutic agent at their IC50 ratio was performed; combination index (CI) was determined by Calcusyn software package (Biosoft, Ferguson, Mo.). Data were evaluated by calculating the means of the combination index (CI), where a CI of <0.3 indicates a strong synergistic effect, 0.3<CI<0.7 a synergistic effect, 0.7<CI<0.9 moderate synergy, 0.9<CI<1 additive effect and CI>1 antagonistic effect, respectively.
For the AP-121 cell proliferation drug combination measurements, the ED50 was determined for each drug. Six different concentrations of each drug were used in combinations index measurements and compared to +/− cells, and compared to controls without compound. Each combination was repeated 6 times at 2 different time points (24 and 96 hours), each of the above experiments was repeated 3 times to obtain valid results.

Consider `CCCCCCCCCCCCCCCCCCOCC(COP(=O)([O-])OCC[N+](C)(C)C)OC` (racemic) [AP-121, 1-O-octadecyl-2-O-methyl-glycero-3-phosphocholine], for which the EC50 in experiment [1] was 5.17 ± 1.6 µM; in experiment [4] (Homo sapiens, A 172, single agent or compound mixture as labelled (arrays A2, A1), read-out: ED50 (the source's name)), 4.2 µM. Besides, the “% Annexin V-PE pos. cells” value in experiment [2] (AD (androgen deprivation, two days) + 5 μM CHEM, AD alone 12.6) came out at 15.4%; in experiment [2] (AD + 10 μM CHEM), 27.4%; in experiment [2] (AD + R1881 (two days prior) + 5 μM CHEM), 14.6%; in experiment [2] (AD + R1881 (two days prior) + 10 μM CHEM), 21.6%; in experiment [2] (CHEM 10 μM + RT 5 Gray simultaneously, 24 hours, means±SEM, p < 0.0001 vs CHEM and RT) it was 31.7 ± 1.0 %; in experiment [2] (CHEM 10 μM alone, 24 hours, means±SEM, three experiments, Control 3.6 ± 0.2), 18.6 ± 1.0%. In addition, the “% Annexin V-PE pos. cells” value in experiment [2] (Contr. + 5 μM CHEM, 22 hours after CHEM, Contr. 9.6) was 13.0%; in experiment [2] (Contr. + 10 μM CHEM, 22 hours after CHEM), 17.5%. Besides, in experiment [2] (androgen-deprived LNCaP cells, 5 and 10 μM, not reversed by synthetic androgen), the apoptotic response entry is recorded as “dose-dependent significant increase”. Besides, the IC50 in experiment [3] (A549) is 6 µM and 6.9 µM; in experiment [3] (Homo sapiens, A549, A549), 8 µM; in experiment [4] (Homo sapiens, A 172), 4.6 µM; in experiment [6] (Homo sapiens, NCI-H460, NCI-H460) it was 1.5 µM; in experiment [6] (NCI-H460), 1.4 µM and 2 µM; in experiment [7], 4.3 µM. The normalized ED50 (arrays B2, B1) in experiment [4] (ratio to the largest value) was 0.62. Further, the “apoptosis in CHEM+RT treated cells” value in experiment [5] was “enhancement of apoptosis”.

Usually IC50 stands for the concentration that gives 50% inhibition.
